Data published in PubChem BioAssay (NCI).
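Five compound concentrations were applied to cells in 96-well plates for 48 hours; endpoints were derived by simple linear interpolation of the resulting dose-response curve. GI50: concentration for 50% inhibition of growth. At the TGI there is no net growth.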

How the values were obtained:
Assay in all cases: inhibition of tumour cell growth, NCI panel, 48 h
HT29 colon = system: HT29 colon
NCI-H23 lung = system: NCI-H23 lung
UACC-62 melanoma = system: UACC-62 melanoma
SW-620 colon = system: SW-620 colon
SF-295 CNS = system: SF-295 CNS
SK-MEL-5 melanoma = system: SK-MEL-5 melanoma
NCI-H522 lung = system: NCI-H522 lung
OVCAR-4 ovarian = system: OVCAR-4 ovarian
HCT-15 colon = system: HCT-15 colon
A498 renal = system: A498 renal
SK-MEL-2 melanoma = system: SK-MEL-2 melanoma
IGROV1 ovarian = system: IGROV1 ovarian
NCI-H226 lung = system: NCI-H226 lung
CAKI-1 renal = system: CAKI-1 renal
CCRF-CEM leukemia = system: CCRF-CEM leukemia
HOP-92 NSCLC = system: HOP-92 NSCLC
OVCAR-3 ovarian = system: OVCAR-3 ovarian
786-0 renal = system: 786-0 renal
COLO 205 colon = system: COLO 205 colon
SK-OV-3 ovarian = system: SK-OV-3 ovarian
SR leukemia = system: SR leukemia
LOX IMVI melanoma = system: LOX IMVI melanoma
PC-3 prostate = system: PC-3 prostate
SK-MEL-28 melanoma = system: SK-MEL-28 melanoma
MCF7 breast = system: MCF7 breast
NCI/ADR-RES ovarian = system: NCI/ADR-RES ovarian
RPMI-8226 leukemia = system: RPMI-8226 leukemia
HL-60(TB) leukemia = system: HL-60(TB) leukemia
MOLT-4 leukemia = system: MOLT-4 leukemia
SNB-75 CNS = system: SNB-75 CNS

O=c1oc2ccc(Cl)cc2c(=O)n1-c1ccc(F)cc1F
TGI (HT29 colon): 38.8 µM
GI50 (NCI-H23 lung): 1.87 µM
TGI (NCI-H23 lung): 7.24 µM
GI50 (UACC-62 melanoma): 0.608 µM
TGI (UACC-62 melanoma): 3.84 µM
GI50 (SW-620 colon): 3.12 µM
TGI (SW-620 colon): 16.9 µM
GI50 (SF-295 CNS): 1.76 µM
TGI (SF-295 CNS): 3.55 µM
GI50 (SK-MEL-5 melanoma): 1.11 µM
TGI (SK-MEL-5 melanoma): 2.46 µM
GI50 (NCI-H522 lung): 1.4 µM
TGI (NCI-H522 lung): 10.3 µM
GI50 (OVCAR-4 ovarian): 1.11 µM
TGI (OVCAR-4 ovarian): > 100 µM
GI50 (HCT-15 colon): 2.32 µM
TGI (HCT-15 colon): 13.5 µM
GI50 (A498 renal): 0.372 µM
TGI (A498 renal): 1.68 µM
GI50 (SK-MEL-2 melanoma): 1.13 µM
TGI (SK-MEL-2 melanoma): 3.97 µM
GI50 (IGROV1 ovarian): 1.74 µM
TGI (IGROV1 ovarian): > 100 µM
GI50 (NCI-H226 lung): 1.41 µM
TGI (NCI-H226 lung): 5.87 µM
GI50 (CAKI-1 renal): 1.45 µM
TGI (CAKI-1 renal): 5.6 µM
GI50 (CCRF-CEM leukemia): 3.32 µM
TGI (CCRF-CEM leukemia): 18.1 µM
TGI (HOP-92 NSCLC): 0.176 µM
GI50 (OVCAR-3 ovarian): 2.24 µM
TGI (OVCAR-3 ovarian): 18.2 µM
GI50 (786-0 renal): 3.07 µM
TGI (786-0 renal): 10.5 µM
GI50 (COLO 205 colon): 7.92 µM
TGI (COLO 205 colon): 23.9 µM
GI50 (SK-OV-3 ovarian): 1.12 µM
TGI (SK-OV-3 ovarian): 5.43 µM
GI50 (SR leukemia): 1.04 µM
TGI (SR leukemia): 9.75 µM
GI50 (LOX IMVI melanoma): 2.4 µM
TGI (LOX IMVI melanoma): 12.1 µM
GI50 (PC-3 prostate): 1.07 µM
TGI (PC-3 prostate): 4.03 µM
GI50 (SK-MEL-28 melanoma): 1.52 µM
TGI (SK-MEL-28 melanoma): 10.5 µM
GI50 (MCF7 breast): 2.42 µM
TGI (MCF7 breast): > 100 µM
GI50 (NCI/ADR-RES ovarian): 2.63 µM
TGI (NCI/ADR-RES ovarian): 9.5 µM
GI50 (RPMI-8226 leukemia): 0.994 µM
TGI (RPMI-8226 leukemia): 4.18 µM
GI50 (HL-60(TB) leukemia): 1.88 µM
TGI (HL-60(TB) leukemia): 4.93 µM
GI50 (MOLT-4 leukemia): 2.33 µM
TGI (MOLT-4 leukemia): 5.59 µM
GI50 (SNB-75 CNS): 1.32 µM
TGI (SNB-75 CNS): 4.2 µM
